This is an account of results in PubChem BioAssay (NCI).

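The compound was tested at five concentrations on cells cultured in 96-well plates, with a 48-hour exposure period. Abbreviation: GI50, concentration required for 50% inhibition of growth. TGI denotes the concentration required for complete inhibition of growth.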

Common to all, as to assay: inhibition of tumour cell growth, NCI panel, 48 h
The subject of experiment [1] is NCI-H23 lung.
Experiment [2] deals with RXF 393 renal.
The subject of experiment [3] is EKVX NSCLC.
The subject of experiment [4] is CAKI-1 renal.
Experiment [5] has as its system RPMI-8226 leukemia.
Experiment [6] has as its system SF-268 CNS.
Experiment [7] deals with NCI-H226 lung.
For experiment [8], the system named is SK-OV-3 ovarian.
For experiment [9], the system named is SK-MEL-2 melanoma.

As for `O=C(Cc1ccccc1)NN1C(=O)C(Cl)C1c1cc(Br)ccc1O` (stereo not drawn), the TGI in experiment [1] was 53.3 µM; in experiment [2], greater than 100 µM; in experiment [3], 23.9 µM; in experiment [4], 60.7 µM; in experiment [5] it was greater than 100 µM; in experiment [6], 50 µM. For the same compound, the TGI in [7] was 69.7 µM; in experiment [8] it was 39 µM; in [9], greater than 100 µM.

For `CC(C)(C)c1ccc2c(c1)S(=O)(=O)Nc1ccccc1NS(=O)(=O)c1cc(C(C)(C)C)ccc1OCCOCCOCCO2`, the TGI in [1], in experiment [2], in experiment [3], in experiment [4], in experiment [6] and in experiment [7] was greater than 100 µM each time. Besides, the TGI in experiment [8] and in experiment [9] was greater than 100 µM each time.

Regarding `COc1ccc(C(=O)C(C(=O)CCC(=O)Nc2cccc(Cl)c2)c2ccc(OC)cc2)cc1` (stereo not drawn), the TGI in experiment [1], in experiment [3], in experiment [4], in experiment [5], in experiment [6] and in [7] was greater than 100 µM each time. Further, the TGI in experiment [8] and in experiment [9] was greater than 100 µM each time.

In the case of `Cc1ccn2c(c1)nc1nc3ccccc3nc12`, the TGI in [1], in experiment [2], in experiment [3], in experiment [4], in experiment [5] and in experiment [6] was greater than 100 µM each time. The TGI in experiment [7], in experiment [8] and in experiment [9] was greater than 100 µM in each case.

With `C1=CC2SSSC2C1` (stereo not drawn), the TGI in experiment [1], in experiment [2], in [3], in [5], in experiment [6] and in [7] was greater than 100 µM in each case. For the same compound, the TGI in [8] and in experiment [9] was greater than 100 µM each time.

`CCOC(=O)c1c(C)n(Cc2ccc(Cl)cc2Cl)c2c1c(CN(C)C)c(O)c1[nH]cnc12`: the GI50 is 0.271 µM in [1]; 14.7 µM in experiment [2]; 22.5 µM in experiment [3]; 18.4 µM in experiment [4]; 7.95 µM in experiment [5]; 15.1 µM in [6]. For the same compound, the GI50 in experiment [7] is 17.8 µM; in experiment [8], 27.3 µM; in experiment [9] it was 19.9 µM. Besides, the TGI in experiment [1] was 5.95 µM; in [2], 28.7 µM; in experiment [3] it was 42.9 µM; in experiment [4], 37.9 µM; in [5] it was 22.1 µM; in [6] it was 28.3 µM. For the same compound, the TGI is 33.4 µM in experiment [7], 43.6 µM in [8] and 39.8 µM in experiment [9].

As for `CCOc1ccccc1NC(=O)CC(C(=O)OC)C(=O)C(=O)OC` (stereo not drawn), the TGI in experiment [1], in experiment [2], in experiment [3], in experiment [4], in experiment [5] and in experiment [6] was greater than 100 µM in each case. The TGI in experiment [7], in experiment [8] and in experiment [9] was greater than 100 µM each time.

As for `N#CCN1C(=O)c2cccc3cc([N+](=O)[O-])cc(c23)C1=O`, the TGI was greater than 100 µM in experiment [1]; greater than 100 µM in experiment [2]; greater than 100 µM in [3]; greater than 100 µM in experiment [5]; greater than 100 µM in [6]; 62.4 µM in experiment [7]. The TGI is greater than 100 µM in [8] and 22.2 µM in [9].

As for `COC1(OC)C2(Cl)C(Cl)=C(Cl)C1(Cl)C1C=CC=CC12` (stereo not drawn), the TGI in [1], in experiment [2], in experiment [3], in experiment [4], in [5] and in [6] was greater than 100 µM each time. Besides, the figures for the TGI in experiment [7], in experiment [8] and in experiment [9] were greater than 100 µM, greater than 100 µM and 63 µM, respectively.

For `Cc1cc(Cl)ccc1N=C1NC(=O)C(CC(=O)Nc2ccc([N+](=O)[O-])cc2[N+](=O)[O-])S1` (stereo not drawn), the TGI in experiment [1] was 51.8 µM; in [3] it was greater than 100 µM; in experiment [4], 54.3 µM; in experiment [5], 53.6 µM; in experiment [6] it was greater than 100 µM; in experiment [8], 55 µM. The TGI in [9] was found to be 46.1 µM.

Regarding `O=C1OC(c2ccccc2)=N/C1=C\c1cccc2ccccc12`, the TGI in [1], in experiment [2], in [4], in [5], in experiment [6] and in experiment [7] was greater than 100 µM throughout. The TGI in [8] and in experiment [9] was greater than 100 µM each time.

With `Nn1c(=O)n(Cc2ccccc2)n(-c2ccccc2)c1=O`, the TGI in experiment [1], in [2], in experiment [4], in experiment [5], in [6] and in [7] was greater than 100 µM each time. Also, the TGI in experiment [8] and in [9] was greater than 100 µM each time.

`CC(=O)[O-].CCN(CC)c1ccc(C=NCCN=Cc2ccc(N(CC)CC)cc2[O-])c([O-])c1.[Mn+3]`: the GI50 in experiment [1] is 19.7 µM; in [2], 20.5 µM; in [3], 39.6 µM; in experiment [4], greater than 100 µM; in [6] it was 23.8 µM; in [7], 64.4 µM. The TGI in experiment [1] was 37.6 µM; in experiment [2], 46.5 µM; in experiment [3] it was greater than 100 µM; in [4], greater than 100 µM; in experiment [6], 52.7 µM; in [7], greater than 100 µM.

As to `NC(N)=N/N=C(\c1nc2ccc([N+](=O)[O-])cc2[nH]c1=O)C(O)c1ccc([N+](=O)[O-])cc1` (stereo not drawn), the TGI in [1], in experiment [2], in [4], in experiment [5], in [6] and in [7] was greater than 100 µM each time. Also, the TGI in experiment [8] was greater than 100 µM.
